Activity calls are given as the source filed them. The calls are words filed in the database; no cut-off is given here.
Columns and labels:
Plasmodium falciparum [1] = experiment: Inhibition of Plasmodium falcipuram recombinant HDAC1 using HDAC-Glo I/II as substrate at 50 to 800 nM preincubated for 90 mins by luminescence based microplate reader analysis; settings: dose 50-800 nM
[2] = Apparent clearance in BALB/c mouse at 5 mg/kg, ip measured after upto 24 hrs by LC-MS/MS analysis; format: ADME, organism-based; settings: in vivo, read-out: CLz/F (converted)
[3] = Apparent volume of distribution in BALB/c mouse at 5 mg/kg, ip measured after upto 24 hrs by LC-MS/MS analysis; format: ADME, organism-based; settings: in vivo, read-out: Vz/F
[4] = Cytotoxicity against HEK293T cells incubated for 72 hrs by CCK-8 assay; settings: human
[5] = Toxicity in BALB/c mouse infected with blood stage Plasmodium yoelii assessed as animal death at 60 mg/kg, ip qd for 5 days measured from day 2 post compound treatment; format: organism-based; settings: in vivo, 120 h, time 5 day
Plasmodium falciparum [6] = experiment: Antimalarial activity against asexual blood stage quinine-resistant Plasmodium falcipuram C2A assessed as parasite growth inhibition incubated for 72 hrs by SYBR Green I staining based fluorescence analysis; format: functional, organism-based
Plasmodium falciparum [7] = experiment: Antimalarial activity against asexual blood stage chloroquine-resistant Plasmodium falciparum Dd2 assessed as parasite growth inhibition incubated for 72 hrs by SYBR Green I staining based fluorescence analysis; format: functional, organism-based; settings: Dd2, 72 h
Plasmodium falciparum [8] = experiment: Antimalarial activity against asexual blood stage chloroquine-resistant Plasmodium falcipuram GB4 assessed as parasite growth inhibition incubated for 72 hrs by SYBR Green I staining based fluorescence analysis; format: functional, organism-based; settings: GB4, 72 h
Plasmodium falciparum [9] = experiment: Antimalarial activity against blood stage asynchronous Plasmodium falcipuram 3D7 assessed as parasite growth inhibition by measuring parasitemia at 10 to 100 nM incubated for 12 to 24 hrs by flow cytometry; format: functional, organism-based; settings: dose 10-100 nM, time 12-24 hrs
[10] = Cmax in BALB/c mouse at 5 mg/kg, ip measured upto 24 hrs by LC-MS/MS analysis; format: ADME, organism-based; parameters: route intraperitoneal, dose 5 mg/kg, time <=24; settings: in vivo
[11] = Toxicity in BALB/c mouse infected with blood stage Plasmodium yoelii assessed as animal death at 60 mg/kg, ip qd for 5 days and measured on day 28; format: organism-based; settings: in vivo, 672 h, time 28 day
Plasmodium falciparum [12] = experiment: Antimalarial activity against asexual blood stage wild-type Plasmodium falciparum 3D7 assessed as parasite growth inhibition incubated for 72 hrs by SYBR Green I staining based fluorescence analysis; format: functional, organism-based; settings: 3D7, 72 h
Plasmodium falciparum [13] = experiment: In vivo inhibition of C-terminal TY1 fused HDAC2 in Plasmodium falcipuram 3D7 assessed as inhibition of parasite growth incubated for 4 hrs followed by compound washout and replacement with fresh medium with compounds measured after 68 hrs by SYBR Green I staining based fluorescence analysis; format: functional, organism-based
[14] = Toxicity in BALB/c mouse infected with blood stage Plasmodium yoelii assessed as animal death at 30 mg/kg, ip qd for 5 days and measured upto 60 days; format: organism-based; settings: in vivo, 1440 h, time 60 day
Plasmodium falciparum [15] = experiment: In vivo inhibition of C-terminal TY1 fused HDAC1 in Plasmodium falcipuram 3D7 assessed as inhibition of parasite growth by measuring downregulation of RBC invasion-related genes expression level by RNA-seq analysis; format: functional, organism-based
Plasmodium falciparum [16] = experiment: In vivo inhibition of C-terminal glmS fused HDAC2 in Plasmodium falcipuram 3D7 assessed as inhibition of parasite growth incubated for 4 hrs followed by compound washout and replacement with fresh medium with compounds measured after 68 hrs by SYBR Green I staining based fluorescence analysis; format: functional, organism-based
[17] = In vivo inhibition of C-terminal TY1 fused HDAC1 in Plasmodium falcipuram 3D7 assessed as inhibition of parasite growth incubated for 4 hrs followed by compound washout and replacement with fresh medium with compounds measured after 68 hrs by SYBR Green I staining based fluorescence analysis; format: functional, organism-based, Plasmodium falciparum
Plasmodium falciparum [18] = experiment: Antimalarial activity against synchronized Plasmodium falcipuram 3D7 infected in human RBC assessed as irreversible inhibition of parasite growth at ring stage at 40 nM treated at 5 to 17 hpi incubated for 12 hrs followed by compound washout and replacement with fresh medium without compounds and measured after 4 days by flow cytometry; format: functional, organism-based
Plasmodium falciparum [19] = experiment: In vivo inhibition of C-terminal glmS fused HDAC1 in Plasmodium falcipuram 3D7 assessed as inhibition of parasite growth by measuring downregulation of RBC invasion-related genes expression level by RNA-seq analysis; format: functional, organism-based
[20] = Tmax in BALB/c mouse at 5 mg/kg, ip measured after upto 24 hrs by LC-MS/MS analysis; format: ADME, organism-based; settings: in vivo
[21] = Metabolic stability in mouse liver microsomes assessed as half life at […] incubated for 45 mins in presence of NADPH by LC/MS analysis; format: ADME, Microsome; settings: microsomes, 0.75 h, 10000 µM
Plasmodium falciparum [22] = experiment: Antimalarial activity against blood stage asynchronous Plasmodium falcipuram 3D7 assessed as suppression of parasite reproduction by measuring parasitemia at 10 nM incubated for 24 hrs followed by compound washout and replacement with fresh medium without compounds and measured after 4 days by flow cytometry; format: functional
Plasmodium falciparum [23] = experiment: Antimalarial activity against blood stage asynchronous Plasmodium falcipuram 3D7 assessed as parasite growth inhibition by measuring parasitemia incubated for 6 to 12 hrs followed by compound washout and replacement with fresh medium without compounds and measured after 4 days by flow cytometry; format: functional, organism-based; settings: dose 10-100 nM, time 6-12 hrs
Plasmodium falciparum [24] = experiment: Inhibition of Plasmodium falcipuram HDAC assessed as effect on parasite histone deacetylation level at 5 to 20 nM incubated for 4 hrs by Western blot analysis; settings: dose 5-20 nM
Plasmodium falciparum [25] = experiment: Antimalarial activity against synchronized Plasmodium falcipuram 3D7 infected in human RBC assessed as irreversible inhibition of parasite growth at schizont stage at 40 nM treated 29 to 41 hpi incubated for 12 hrs followed by compound washout and replacement with fresh medium without compounds and measured after 4 days by flow cytometry; format: functional, organism-based
[26] = In vivo inhibition of C-terminal glmS fused HDAC1 in Plasmodium falcipuram 3D7 assessed as inhibition of parasite growth incubated for 4 hrs followed by compound washout and replacement with fresh medium with compounds measured after 68 hrs by SYBR Green I staining based fluorescence analysis; format: functional, organism-based, Plasmodium falciparum
[27] = Cytotoxicity against human HepG2 cells incubated for 72 hrs by CCK-8 assay
Plasmodium berghei = experiment: Antimalarial activity against liver stage transgenic Plasmodium berghei ANKA sporozoites transfected with GFP-Luc infected in BALB/c mouse assessed as reduction in liver stage parasite infection at 30 mg/kg, iv measured for 1 to 4 days post-administration by IVIS spectrum in vivo imaging analysis; format: functional, organism-based; settings: time 1-4 day
Plasmodium yoelii = experiment: Antimalarial activity against blood stage Plasmodium yoelii infected in BALB/c mouse assessed as parasite recrudescence by measuring parasitemia at 60 mg/kg, ip qd for 5 days and measured on 11 to 26 days; format: functional; settings: time 11-26 day
Plasmodium falciparum [28] = experiment: Antimalarial activity against synchronized Plasmodium falcipuram 3D7 infected in human RBC assessed as ring stage parasite killing at 40 nM treated […] and incubated for 12 hrs followed by compound washout and replacement with fresh medium without compounds and measured at 50 hrs post infection by Geimsa staining based microscopy; format: functional, organism-based

## Cn1cc(CNCC2CCN(c3ncc(C(=O)NO)cn3)CC2)c2ccccc21 [QUISINOSTAT]
Plasmodium falciparum [1]
  inhibition: Active
[2]
  CL/F: 462 mL/min/kg
[3]
  Vd/F: 245 L/kg
[4]
  IC50 at 72 h: 60 nM
[5]
  Activity: Toxic
Plasmodium falciparum [6]
  IC50: 2.52 nM
Plasmodium falciparum [7]
  IC50: 7.09 nM
Plasmodium falciparum [8]
  IC50: 1.75 nM
Plasmodium falciparum [9]
  Activity: Active
[10]
  Cmax: 89 ng/mL
[11]
  Activity: Toxic
Plasmodium falciparum [12]
  IC50: 4.01 nM
Plasmodium falciparum [13]
  inhibition: Active
[14]
  Activity: Toxic
Plasmodium falciparum [15]
  inhibition: Active
Plasmodium falciparum [16]
  inhibition: Active
[17]
  IC50: 19.1 nM
Plasmodium falciparum [18]
  Activity: Active
Plasmodium falciparum [19]
  inhibition: Active
[20]
  Tmax: 4.8 min
[21]
  t1/2: 629.7 min
Plasmodium falciparum [22]
  Activity: 100%
Plasmodium falciparum [23]
  Activity: Dose dependent effect
Plasmodium falciparum [24]
  Activity: Active
Plasmodium falciparum [25]
  Activity: Active
[26]
  IC50: 5.59 nM
[27]
  IC50 at 72 h: 30 nM
Plasmodium berghei
  Activity: inactive
Plasmodium yoelii
  Activity: 0.05%
Plasmodium falciparum [28]
  Activity: Active
